The source of these data is patent US12509449B2, “Anthelmintic compounds comprising a quinoline structure” (Intervet Inc., priority 2019, dated 2025).

The target in assay [1] is T1, human Maxi K channel (BK channel), KCNMA1 (KCa1.1) and beta1 (KCNMB1) subunits (Homo sapiens, UniProt Q12791).
T1 construct: expressed in transfected cells; host or cells: CHO K1
As to the kind of experiment: Agonistic activity at the human Maxi K channel (BK channel), membrane potential (FLIPR) in transfected CHO K1 cells. In kind it is cell-based. The note with it: membrane potential dye, 70 mM KCl. The source says:
A CHO K1 cell line was stably transfected with the KCNMA1 (KCa1.1, U11058) and beta1 (KCNMB1) subunits of the human Maxi K channel (Ponte et al, Molecular Pharmacology 2012, 81(4), 567-577).
The complete measurement takes 150 s.

For assay [2], the target named is Caenorhabditis elegans slo-1a (Caenorhabditis elegans, UniProt Q95V25). As to the kind of experiment: Agonistic activity at C. elegans Slo-1a, membrane potential (FLIPR) in transfected CHO K1 cells. Particulars: EC50 agonistic activity at C. elegans Slo-1a, membrane potential dye, 70 mM KCl.
Chain of Caenorhabditis elegans slo-1a (Q95V25 whole entry): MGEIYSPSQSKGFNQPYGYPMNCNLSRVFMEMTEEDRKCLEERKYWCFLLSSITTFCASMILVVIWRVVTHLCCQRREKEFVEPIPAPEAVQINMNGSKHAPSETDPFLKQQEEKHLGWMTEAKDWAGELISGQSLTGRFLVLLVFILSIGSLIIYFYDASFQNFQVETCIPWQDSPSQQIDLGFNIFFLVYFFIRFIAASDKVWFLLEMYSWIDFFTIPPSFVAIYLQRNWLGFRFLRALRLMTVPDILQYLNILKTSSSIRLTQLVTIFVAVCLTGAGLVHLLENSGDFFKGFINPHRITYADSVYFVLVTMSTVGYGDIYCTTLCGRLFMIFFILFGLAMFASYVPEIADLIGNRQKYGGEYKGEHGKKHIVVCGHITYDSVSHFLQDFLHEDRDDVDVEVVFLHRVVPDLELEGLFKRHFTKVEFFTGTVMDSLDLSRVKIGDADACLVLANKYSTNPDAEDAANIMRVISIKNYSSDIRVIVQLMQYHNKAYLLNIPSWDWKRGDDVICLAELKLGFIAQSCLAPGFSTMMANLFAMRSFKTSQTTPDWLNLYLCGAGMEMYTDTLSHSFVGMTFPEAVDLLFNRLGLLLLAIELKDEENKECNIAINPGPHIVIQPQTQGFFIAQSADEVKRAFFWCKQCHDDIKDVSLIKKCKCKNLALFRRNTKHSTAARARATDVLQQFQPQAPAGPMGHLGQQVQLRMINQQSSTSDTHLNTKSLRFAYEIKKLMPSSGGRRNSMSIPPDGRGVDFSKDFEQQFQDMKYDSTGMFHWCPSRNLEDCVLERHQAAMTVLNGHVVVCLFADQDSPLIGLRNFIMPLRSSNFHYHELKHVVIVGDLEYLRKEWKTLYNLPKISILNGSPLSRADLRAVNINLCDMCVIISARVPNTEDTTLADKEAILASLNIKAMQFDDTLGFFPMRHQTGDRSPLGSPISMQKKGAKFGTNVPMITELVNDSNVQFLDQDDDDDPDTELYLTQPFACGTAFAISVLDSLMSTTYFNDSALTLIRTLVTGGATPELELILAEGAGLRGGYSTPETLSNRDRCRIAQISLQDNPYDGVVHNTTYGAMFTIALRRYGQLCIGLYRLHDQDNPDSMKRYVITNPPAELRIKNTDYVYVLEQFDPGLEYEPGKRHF
Procedure: A CHO K1 cell line stably transfected with the Caenorhabditis elegans slo-1a (accession no Y51A2D.19a) was established. Cells were seeded in microtiter plates (black 384-well MTP, clear bottom) in a concentration of 10,000 cells/well in 25 μl medium and cultured for 20 to 24 hours at 37° C. and 5% CO2. The cell medium was removed, and the cells washed with Tyrode's solution. 1 of FMP-dye Blue-Tyrode's was added to each well and incubated at room temperature for 30 min.
For the membrane potential measurements, the prepared cell plate and substance plate were placed in the FLIPR Tetra (Molecular Devices). The baseline measurement of the fluorescence was stared for 20 sec (Exc. 510-545 nm, Emm. 565-625 nm). The cells were depolarized by addition of 25p of the diluted test compounds (final assay concentration of the KCl-Tyrode: 70 mM KCl, 2 mM CaCl2), 1 mM MgCl2, 0.8 mM NaH2PO4, 5 mM Glucose, 28 mM Hepes, pH 7.4, including the voltage sensitive dye). The complete measurement takes 150 s.
EC50 values were determined in triplicate utilizing compound dilution series. The data were determined at least in two independent tests. The data were proceeded by using the ActivityBase XE Runner software (IDBS) for curve fitting and calculation of the half-maximal effective concentration.

T1 sequence (Q12791 1-1178 isoform Q12791-5): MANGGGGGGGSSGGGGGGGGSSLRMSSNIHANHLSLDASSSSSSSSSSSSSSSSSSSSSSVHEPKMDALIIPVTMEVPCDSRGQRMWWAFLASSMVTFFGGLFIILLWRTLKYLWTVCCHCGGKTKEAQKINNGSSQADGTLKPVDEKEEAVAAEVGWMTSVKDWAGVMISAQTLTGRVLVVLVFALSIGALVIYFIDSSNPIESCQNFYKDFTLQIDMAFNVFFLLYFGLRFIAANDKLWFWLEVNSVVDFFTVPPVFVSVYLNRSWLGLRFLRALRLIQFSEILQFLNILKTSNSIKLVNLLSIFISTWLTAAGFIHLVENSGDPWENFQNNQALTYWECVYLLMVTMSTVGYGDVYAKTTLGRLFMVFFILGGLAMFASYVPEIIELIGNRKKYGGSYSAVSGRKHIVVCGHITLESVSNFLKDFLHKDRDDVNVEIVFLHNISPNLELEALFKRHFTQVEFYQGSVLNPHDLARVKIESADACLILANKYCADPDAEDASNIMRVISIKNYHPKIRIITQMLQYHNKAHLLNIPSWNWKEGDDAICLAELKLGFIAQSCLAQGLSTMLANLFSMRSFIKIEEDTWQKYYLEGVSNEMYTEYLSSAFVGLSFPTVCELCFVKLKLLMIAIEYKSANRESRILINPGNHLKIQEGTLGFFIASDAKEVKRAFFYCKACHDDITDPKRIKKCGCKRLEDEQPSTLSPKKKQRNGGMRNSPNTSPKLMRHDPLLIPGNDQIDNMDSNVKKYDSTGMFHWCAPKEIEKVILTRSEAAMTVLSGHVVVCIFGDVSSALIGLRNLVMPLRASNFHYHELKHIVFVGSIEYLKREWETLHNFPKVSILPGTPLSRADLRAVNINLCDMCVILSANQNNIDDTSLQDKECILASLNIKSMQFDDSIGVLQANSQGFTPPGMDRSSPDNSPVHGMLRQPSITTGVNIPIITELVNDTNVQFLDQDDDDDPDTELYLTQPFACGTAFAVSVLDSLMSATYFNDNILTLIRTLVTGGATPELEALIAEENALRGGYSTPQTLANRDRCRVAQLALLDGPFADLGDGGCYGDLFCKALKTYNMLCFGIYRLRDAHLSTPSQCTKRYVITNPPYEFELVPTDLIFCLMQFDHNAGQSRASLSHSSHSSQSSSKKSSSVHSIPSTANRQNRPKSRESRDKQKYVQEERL
T1 sequence (Q16558 whole entry partner): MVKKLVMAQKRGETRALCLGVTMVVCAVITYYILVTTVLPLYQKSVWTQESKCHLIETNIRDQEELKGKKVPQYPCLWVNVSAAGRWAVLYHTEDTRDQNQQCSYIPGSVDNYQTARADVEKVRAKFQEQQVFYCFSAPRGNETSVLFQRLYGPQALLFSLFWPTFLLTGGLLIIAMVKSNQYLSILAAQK

In general, EC50 refers to the concentration giving half of the maximal effect. Lower therefore signals higher potency in that assay. As for `CCOc1c(NC(=O)c2cccc3ccccc23)cnc2c(-c3cccc(Cl)c3Cl)c(F)ccc12` [Compound 149], the EC50 in assay [1] was above 30 µM; in assay [2], below 1 µM.
Consider `O=C(Cc1ccccc1)Nc1cnc2c(-c3cc(Cl)cc(Cl)c3)cccc2c1N1CCOCC1` [Compound 5], for which the EC50 in assay [1] is above 30 µM.
Consider `COc1c(NC(=O)c2cccc3ccccc23)cnc2c(-c3cccc(Cl)c3Cl)cccc12` [Compound 62], for which the figures for the EC50 in assay [1] and in assay [2] were above 30 µM and below 1 µM, respectively.
On the same counts, the results for `CCOc1c(NC(=O)C2CCCc3ccccc32)cnc2c(-c3cccc(Cl)c3Cl)c(F)ccc12` (stereo not shown) [Compound 119] are above 30 µM and below 1 µM.
Regarding `O=C(Nc1cnc2c(-c3cccc(Cl)c3Cl)c(F)ccc2c1N1CCOCC1)C1CCc2ccccc21` (stereo not shown) [Compound 141], the EC50 in assay [1] was 1 to 10 µM; in assay [2], below 1 µM.
For `Cc1ccc2c(N3CCOCC3)c(NC(=O)C3CCOc4ccccc43)cnc2c1-c1cc(Cl)cc(Cl)c1` (stereo not shown) [Compound 174], in that order: above 30 µM and below 1 µM.
On the same counts, the results for `CN(C)c1c(NC(=O)C2CCc3ccccc32)cnc2c(-c3cccc(Cl)c3Cl)c(F)ccc12` (stereo not shown) [Compound 140] are 10 to 30 µM and below 1 µM.
`O=C(Nc1cnc2c(-c3cccc(Cl)c3Cl)cccc2c1N1CCOCC1)[C@H]1CCCc2ccccc21` [Compound 53] registered an EC50 in assay [1] of 1 to 10 µM.
On to `CC(C)c1c(NC(=O)C2CCCc3ccccc32)cnc2c(-c3cccc(Cl)c3Cl)cccc12` (stereo not shown) [Compound 109], for which the EC50 in assay [1] is above 30 µM; in assay [2], below 1 µM.
For `O=C(Nc1cnc2c(-c3cccc(Cl)c3Cl)cccc2c1N1CCOCC1)C1CCCc2ccccc21` (stereo not shown) [Compound 19], in that order: 1 to 10 µM and below 1 µM.
For `O=C(Nc1cnc2c(-c3cc(Cl)cc(Cl)c3)cccc2c1N1CCOCC1)C1CCc2ccccc21` (stereo not shown) [Compound 82], in that order: 10 to 30 µM and below 1 µM.
On the same counts, the results for `O=C(Nc1cnc2c(-c3cc(Cl)cc(Cl)c3)cccc2c1O)C1CCc2ccccc21` (stereo not shown) [Compound 65] are above 30 µM and below 10 µM.
For the compound `CCOc1c(NC(=O)C2CCCc3ccccc32)cnc2c(-c3cccc(Cl)c3Cl)cccc12` (stereo not shown) [Compound 55], the results for the EC50 in assay [1] and in assay [2] were above 30 µM and below 1 µM, respectively.
For `CN(C)c1c(NC(=O)c2cccc3ccccc23)cnc2c(-c3cc(Cl)cc(Cl)c3)cccc12` [Compound 153], in that order: above 30 µM and below 10 µM.
For `O=C(Nc1cnc2c(-c3cc(Cl)cc(Cl)c3)c(F)ccc2c1N1CCOCC1)c1cccc2ccccc12` [Compound 146], in that order: 10 to 30 µM and below 1 µM.
For `O=C(Nc1cnc2c(-c3cc(Cl)cc(Cl)c3)c(Cl)ccc2c1N1CCOCC1)C1CCOc2ccccc21` (stereo not shown) [Compound 170], in that order: above 30 µM and below 1 µM.
Turning to `CC(C(=O)Nc1cnc2c(-c3cc(Cl)cc(Cl)c3)cccc2c1N1CCOCC1)c1ccccc1` (stereo not shown) [Compound 9], the EC50 was above 30 µM in assay [1] and below 1 µM in assay [2].
In the case of `CN(C)c1c(NC(=O)C2CCCc3ccccc32)cnc2c(-c3cccc(Cl)c3Cl)cccc12` (stereo not shown) [Compound 13], the EC50 in assay [1] is 1 to 10 µM; in assay [2], below 1 µM.
`COCCNc1c(NC(=O)C2CCCc3ccccc32)cnc2c(-c3cccc(Cl)c3Cl)cccc12` (stereo not shown) [Compound 101] registered an EC50 in assay [1] of 10 to 30 µM.
On to `CCCc1c(NC(=O)c2cccc3ccccc23)cnc2c(-c3cccc(Cl)c3Cl)cccc12` [Compound 187], for which the EC50 in assay [1] is above 30 µM; in assay [2], below 1 µM.
On the same counts, the results for `O=C(Nc1cnc2c(-c3cccc(Cl)c3Cl)c(F)ccc2c1N1CCOCC1)C1CCCc2ccccc21` (stereo not shown) [Compound 121] are 1 to 10 µM and below 1 µM.
Take `COCCN(C)c1c(NC(=O)C2CCOc3ccccc32)cnc2c(-c3cccc(Cl)c3Cl)cccc12` (stereo not shown) [Compound 93]: in assay [1], the EC50 was above 30 µM.
For the compound `CCOc1c(NC(=O)[C@H]2CCCc3ccccc32)cnc2c(-c3cccc(Cl)c3Cl)cccc12` [Compound 54], the EC50 in assay [1] is above 30 µM; in assay [2], below 1 µM.
For `O=C(Nc1cnc2c(-c3cc(Cl)cc(Cl)c3)c(F)ccc2c1N1CCOCC1)C1CCOc2ccccc21` (stereo not shown) [Compound 126], in that order: above 30 µM and below 1 µM.
`C=C(C)c1c(NC(=O)c2cccc3ccccc23)cnc2c(-c3cccc(Cl)c3Cl)cccc12` [Compound 189] showed an EC50 in assay [1] above 30 µM.
As for `O=C(Nc1cnc2c(-c3cccc(Cl)c3Cl)cccc2c1N1CCOCC1)C1CCc2ccccc21` (stereo not shown) [Compound 20], the 50% effective concentration (EC50) is 1 to 10 µM in assay [1] and below 1 µM in assay [2].
As to `CCc1c(NC(=O)C2CCOc3ccccc32)cnc2c(-c3cccc(Cl)c3Cl)cccc12` (stereo not shown) [Compound 105], the concentration giving a half-maximal response (EC50) was above 30 µM in assay [1] and below 1 µM in assay [2].
`CC(C)Oc1c(NC(=O)C2CCOc3ccccc32)cnc2c(-c3cc(Cl)cc(Cl)c3)cccc12` (stereo not shown) [Compound 78] displayed an EC50 in assay [1] above 30 µM.
On the same count and under the same terms, the value for `O=C(Nc1cnc2c(-c3cccc(Cl)c3Cl)cccc2c1O)C1CCc2ccccc21` (stereo not shown) [Compound 111] was above 30 µM.
Consider `Cc1c(NC(=O)c2cccc3ccccc23)cnc2c(-c3cccc(Cl)c3Cl)cccc12` [Compound 190], for which the EC50 in assay [1] is above 30 µM; in assay [2], below 10 µM.
For `CCc1c(NC(=O)[C@H]2CCCc3ccccc32)cnc2c(-c3cccc(Cl)c3Cl)cccc12` [Compound 204], in that order: above 30 µM and below 1 µM.
On the same counts, the results for `O=C(Nc1cnc2c(-c3cc(Cl)cc(Cl)c3)cccc2c1N1CCOCC1)c1cccc2ccccc12` [Compound 74] are 10 to 30 µM and below 1 µM.
With `CC(C)Nc1c(NC(=O)C2CCCc3ccccc32)cnc2c(-c3cccc(Cl)c3Cl)cccc12` (stereo not shown) [Compound 97], in assay [1], the EC50 is above 30 µM.
For `CN(C)c1c(NC(=O)C2CCOc3ccccc32)cnc2c(-c3cc(Cl)cc(Cl)c3)c(Cl)ccc12` (stereo not shown) [Compound 171], the 50% effective concentration (EC50) in assay [1] was above 30 µM; in assay [2], below 1 µM.
In turn, `O=C(Nc1cnc2c(-c3cc(Cl)cc(Cl)c3)cccc2c1O)C1CCOc2ccccc21` (stereo not shown) [Compound 64] gave an EC50 in assay [1] above 30 µM.
Turning to `COCCN(C)c1c(NC(=O)C2CCCc3ccccc32)cnc2c(-c3cccc(Cl)c3Cl)cccc12` (stereo not shown) [Compound 103], the EC50 in assay [1] was above 30 µM; in assay [2] it was below 1 µM.
On the same counts, the results for `O=C(Nc1cnc2c(-c3cc(Cl)cc(Cl)c3)c(Cl)ccc2c1N1CCOCC1)[C@H]1CCCc2ccccc21` [Compound 185] are 10 to 30 µM and below 1 µM.
In turn, `Cc1c(NC(=O)c2ccnc3ccccc23)cnc2c(-c3cccc(Cl)c3Cl)cccc12` [Compound 106] yielded an EC50 in assay [1] above 30 µM.
In turn, `CC(C)Oc1c(NC(=O)C2CCc3ccccc32)cnc2c(-c3cc(Cl)cc(Cl)c3)cccc12` (stereo not shown) [Compound 80] returned an EC50 in assay [1] above 30 µM.
The same measure, in the same setting: the value for `CCOc1c(NC(=O)C2CCc3ccccc32)cnc2c(-c3cc(Cl)cc(Cl)c3)c(F)ccc12` (stereo not shown) [Compound 134] was above 30 µM.
Same read-out and setting: the value for `CC(C)Oc1c(NC(=O)C2CCCc3ccccc32)cnc2c(-c3cccc(Cl)c3Cl)cccc12` (stereo not shown) [Compound 59] was above 30 µM; that for `CC(C)Oc1c(NC(=O)C2CCCc3ccccc32)cnc2c(-c3cc(Cl)cc(Cl)c3)c(F)ccc12` (stereo not shown) [Compound 117] was above 30 µM.
